The subject of data set [1] is Ras. The experiment in a line: Ras activation (Raf-RBD pull-down). Format: cell-based, human. The note with it: 3 μM YC-1. The method, then: (A) Cells were pretreated with DMSO (as control), Bay-43-9006 (Bay, 10 μM), farnyesyl thiosalicylic acid (FTS, 10 μM), Src inhibitor I (SrcI, 10 μM), and genistein (Gen, 10 μM), then followed by YC-1 (3 μM) incubation for 6 h. Cells were harvested and lysed for western blot analysis (left, right) and cell viability (middle). The levels of protein expression were quantitated and shown under blots. (B) MDA-MB-468 cells were transfected with shRNA of Raf-1 or Src. After stimulation of 3 μM YC-1 for 4 h, cell protein was subjected to western blot analysis. (C) Cells were incubated with 3 μM YC-1 for indicated time and then lysed for detection of Src, Raf-1, and MEK activation by using specific anti-phosphorylated antibodies. (D) Cells were treated with 3 μM YC-1 for indicated time. Cells were lysed and detected Ras activation by using Raf-RBD conjugated agarose to pull-down Ras-GTP. The total Ras in cell lysate was also detected. […] Cells were lysed and protein expression was determined by western blot analysis. (F) Cells were induced by 3 μM YC-1 in the presence of indicated inhibitors. Cells were lysed and subjected to EZH2 ubiquitination assay.
Ras-GTP has a high affinity with Ras binding domain of Raf-1 (Raf-RBD). Accordingly, GST fusion protein containing Raf-RBD was applied to detect Ras activation. […]

The subject of data set [2] is MDA-MB-468 xenograft. Kind of data set: MDA-MB-468 breast cancer xenograft animal model. The class given is in vivo, Nu/Nu mice. The method, then:
MDA-MB-468 cells were used to inoculate Nu/Nu mice. (A, left) Tumor bearing mice were given vehicle (10 μl DMSO, CTL) or YC-1 (30 and 60 mg/kg/day) by ip treatment. (B, right) Tumor bearing mice were given vehicle (normal saline, CTL) or YC-1-succinate (YC-1-S; 20, 40, and 80 mg/kg/day) by oral administration. During treatment period, tumor volume and body weights of mice were measured once per 3 days. Data are expressed as mean of tumor volume (mm^3)±S.E.M. from 6 mice (YC-1 treatment) or 10 mice (YC-1-S treatment). Tumor weights (B) and body weights of mice (C) in control and YC-1/YC-1-S-treated groups were recorded.
Nu/Nu female mice (four weeks old) were from National Laboratory Animal Center, Taipei, Taiwan. Mice were maintained under procedures and guidelines from the Institutional Animal Care and Use of the National Health Research Institutes. MDA-MB-468 breast cancer cells (5×10^6 cells per mouse) were suspended in 0.1 ml of Matrigel solution (50%, v/v, Matrigel in 1×PBS) and inoculated into the mammary fat pads of nude mice. When the tumor masses reached to 100 mm^3, the tumor bearing mice were randomly divided into different groups for different dosage of YC-1 treatments. The mice were given by intraperitoneal injection with YC-1 or oral administration of YC-1-succinate. Tumor size and body weights of mice were measured once per 3 days and tumor volume (mm^3) was calculated as the equation: length×[…]. At the end of experiments, mice were sacrificed and tumor nodules were dissected and weighted. Tumor tissues were subjected to western blot analysis.

The record followed here is patent publication US20140357688A1, “METHOD FOR INHIBITING EZH2 EXPRESSION IN BREAST CANCER CELLS” (Yung Shin Pharm. Ind. Co., Ltd., priority 2013, published 2014).

In the case of `OCc1ccc(-c2nn(Cc3ccccc3)c3ccccc23)o1` [YC-1, 3-(5′-hydroxymethyl-2′-furyl)-1-benzyl indazole], in data set [1], the Ras activation result is on record as “could not induce Ras activation”. For the same compound, the tumor growth entry in data set [2] (30 and 60 mg/kg by intraperitoneal injection) is “significantly inhibited the tumor growth”. Besides, in data set [2] (30 and 60 mg/kg/day ip), the “body weights of mice” value is “not affected” and the tumor weight entry is listed as “dose-dependently reduced tumor weight”.
